Values quoted from earlier work, collected in US11965206B2, “Method of dosing a patient with multiple drugs using adjusted phenotypes of CYP450 enzymes” (priority 2018, dated 2024).
Where two headings read alike, the source gives them in different places.

Columns and labels:
CYP450 enzyme 2C9 = CYP450 enzyme 2C9 (Homo sapiens, UniProt P11712); details: found in drug databases
CYP450 enzyme 2B6 = target: T1, CYP450 enzyme 2B6 (Homo sapiens, UniProt P20813); details: found in drug databases
T1 sequence (P20813 1-491): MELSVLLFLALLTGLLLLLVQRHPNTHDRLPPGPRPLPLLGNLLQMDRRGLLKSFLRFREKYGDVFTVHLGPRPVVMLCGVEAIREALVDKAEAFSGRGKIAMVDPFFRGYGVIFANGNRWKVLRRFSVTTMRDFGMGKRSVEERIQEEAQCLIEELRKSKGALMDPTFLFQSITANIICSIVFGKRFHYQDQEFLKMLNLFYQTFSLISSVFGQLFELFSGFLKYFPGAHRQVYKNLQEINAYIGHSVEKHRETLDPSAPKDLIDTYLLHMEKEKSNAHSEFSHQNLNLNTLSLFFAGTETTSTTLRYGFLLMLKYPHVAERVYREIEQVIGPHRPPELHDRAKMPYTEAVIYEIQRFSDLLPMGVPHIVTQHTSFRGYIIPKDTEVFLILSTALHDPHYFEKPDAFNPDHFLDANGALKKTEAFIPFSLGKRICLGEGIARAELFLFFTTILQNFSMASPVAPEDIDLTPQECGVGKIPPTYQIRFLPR

CYP450 enzyme 2C19 = CYP450 enzyme 2C19 (Homo sapiens, UniProt P33261); details: found in drug databases
CYP450 enzyme 2D6 = CYP450 enzyme 2D6 (Homo sapiens, UniProt P10635)
CYP450 enzyme 3A4 = CYP450 enzyme 3A4 (Homo sapiens, UniProt P08684)
Sequence of CYP450 enzyme 3A4 (P08684 whole entry): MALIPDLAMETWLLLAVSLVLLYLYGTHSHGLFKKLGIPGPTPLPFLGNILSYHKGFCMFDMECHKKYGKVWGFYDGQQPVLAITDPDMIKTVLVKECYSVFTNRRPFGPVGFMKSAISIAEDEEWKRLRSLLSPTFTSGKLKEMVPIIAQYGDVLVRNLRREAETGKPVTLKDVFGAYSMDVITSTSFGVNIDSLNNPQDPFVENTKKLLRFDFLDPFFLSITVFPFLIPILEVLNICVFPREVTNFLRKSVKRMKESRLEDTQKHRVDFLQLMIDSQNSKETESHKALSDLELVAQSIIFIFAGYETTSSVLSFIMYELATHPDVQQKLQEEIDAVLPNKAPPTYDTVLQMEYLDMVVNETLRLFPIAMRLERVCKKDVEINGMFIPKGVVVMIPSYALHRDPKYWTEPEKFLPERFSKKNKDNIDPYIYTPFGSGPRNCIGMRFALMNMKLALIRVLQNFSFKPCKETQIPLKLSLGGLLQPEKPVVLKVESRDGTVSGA

Sequence of CYP450 enzyme 2C9 (P11712 whole entry): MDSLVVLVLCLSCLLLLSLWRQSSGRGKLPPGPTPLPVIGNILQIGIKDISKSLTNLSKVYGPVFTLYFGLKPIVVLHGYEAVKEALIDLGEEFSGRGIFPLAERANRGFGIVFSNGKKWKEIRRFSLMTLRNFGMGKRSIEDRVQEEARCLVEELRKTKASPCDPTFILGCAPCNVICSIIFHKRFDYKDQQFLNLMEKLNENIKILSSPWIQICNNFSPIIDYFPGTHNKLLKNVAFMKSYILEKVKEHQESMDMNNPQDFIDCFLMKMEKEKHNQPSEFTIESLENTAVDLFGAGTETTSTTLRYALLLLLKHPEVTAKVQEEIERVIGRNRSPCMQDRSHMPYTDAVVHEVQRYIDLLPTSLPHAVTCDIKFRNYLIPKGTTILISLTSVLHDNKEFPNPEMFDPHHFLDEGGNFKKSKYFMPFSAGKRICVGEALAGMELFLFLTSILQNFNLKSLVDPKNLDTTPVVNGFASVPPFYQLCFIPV
Sequence of CYP450 enzyme 2D6 (P10635 whole entry): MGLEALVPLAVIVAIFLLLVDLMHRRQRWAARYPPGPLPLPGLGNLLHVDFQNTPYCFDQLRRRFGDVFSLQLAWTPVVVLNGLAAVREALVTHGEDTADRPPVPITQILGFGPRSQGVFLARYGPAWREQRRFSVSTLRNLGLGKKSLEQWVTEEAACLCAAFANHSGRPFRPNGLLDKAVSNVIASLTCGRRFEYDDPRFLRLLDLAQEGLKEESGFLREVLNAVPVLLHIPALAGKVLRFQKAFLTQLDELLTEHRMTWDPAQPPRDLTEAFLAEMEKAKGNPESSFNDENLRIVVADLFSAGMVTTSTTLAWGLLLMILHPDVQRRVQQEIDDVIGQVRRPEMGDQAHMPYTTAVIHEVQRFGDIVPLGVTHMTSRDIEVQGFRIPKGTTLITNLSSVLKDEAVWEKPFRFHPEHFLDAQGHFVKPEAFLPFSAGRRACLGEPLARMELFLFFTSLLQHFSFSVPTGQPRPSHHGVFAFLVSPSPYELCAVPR
Sequence of CYP450 enzyme 2C19 (P33261 whole entry): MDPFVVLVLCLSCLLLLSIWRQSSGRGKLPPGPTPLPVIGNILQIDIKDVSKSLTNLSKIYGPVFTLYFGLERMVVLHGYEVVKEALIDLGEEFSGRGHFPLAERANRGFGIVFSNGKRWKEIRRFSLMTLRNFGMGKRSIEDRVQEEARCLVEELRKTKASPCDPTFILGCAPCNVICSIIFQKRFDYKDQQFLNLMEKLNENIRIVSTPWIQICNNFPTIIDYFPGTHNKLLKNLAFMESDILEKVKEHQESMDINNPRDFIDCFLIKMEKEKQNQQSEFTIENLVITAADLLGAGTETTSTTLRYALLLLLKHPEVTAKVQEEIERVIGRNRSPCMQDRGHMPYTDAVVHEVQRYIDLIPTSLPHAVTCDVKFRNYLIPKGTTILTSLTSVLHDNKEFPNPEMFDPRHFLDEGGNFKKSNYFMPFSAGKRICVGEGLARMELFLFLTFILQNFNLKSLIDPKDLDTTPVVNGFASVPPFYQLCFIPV

| SMILES | substrate for 2C9 (CYP450 enzyme 2C9) | strong, moderate or weak inhibitor of 2D6 (CYP450 enzyme 2D6; found in drug databases) | substrate for 2D6 (CYP450 enzyme 2D6; found in drug databases) | also measured |
| --- | --- | --- | --- | --- |
| CCCC(CCC)C(=O)O [Depakote] | substrate |  |  | strong, moderate or weak inhibitor of 2C9 (CYP450 enzyme 2C9): weak inhibitor; substrate for 2B6 (CYP450 enzyme 2B6): substrate; strong, moderate or weak inhibitor of 2C19 (CYP450 enzyme 2C19): weak inhibitor |
| Cc1nc2n(c(=O)c1CCN1CCC(c3noc4cc(F)ccc34)CC1)CCCC2 [Risperidone] |  | weak inhibitor | substrate |  |
| CCCCC1=NC2(CCCC2)C(=O)N1Cc1ccc(-c2ccccc2-c2nnn[nH]2)cc1 [Irbesartan] | substrate |  |  |  |
| O=C1CCc2ccc(OCCCCN3CCN(c4cccc(Cl)c4Cl)CC3)cc2N1 [Abilify] |  |  | substrate |  |
| CN(C)CCC[C@@]1(c2ccc(F)cc2)OCc2cc(C#N)ccc21 [Lexapro] |  | weak inhibitor |  | substrate for 3A4 (CYP450 enzyme 3A4): substrate; substrate for 2C19 (CYP450 enzyme 2C19): substrate |
| COCCc1ccc(OCC(O)CNC(C)C)cc1 (stereo not shown) [metoprolol] |  |  | substrate |  |
| O=C(CCCN1CCC(O)(c2ccc(Cl)cc2)CC1)c1ccc(F)cc1 [Haldol] |  | weak inhibitor | substrate |  |
| Fc1ccc([C@@H]2CCNC[C@H]2COc2ccc3c(c2)OCO3)cc1 [paroxetine] |  |  |  | substrate for 2D6 (CYP450 enzyme 2D6): substrate |
| COc1ccc([C@@H]2Sc3ccccc3N(CCN(C)C)C(=O)[C@@H]2OC(C)=O)cc1 [Diltiazem, diltiazem] |  | weak inhibitor |  |  |
| CNCCC(Oc1ccc(C(F)(F)F)cc1)c1ccccc1 (stereo not shown) [Prozac] | substrate |  | substrate | strong, moderate or weak inhibitor of 2C9 (CYP450 enzyme 2C9): moderate inhibitor |
